Results as given in ChEMBL document CHEMBL1128163, “Synthesis and biological evaluation of 4-heterotribactams” (Bioorg Med Chem Lett, 1995).
The source made the active and inactive calls. The rule behind the calls is not given here.

Legend:
Format in all cases: functional, organism-based
Pseudomonas aeruginosa [1] = experiment: Tested for broad spectrum antibacterial activity against Pseudomonas aeruginosa; A - active compound
Escherichia coli [2] = experiment: Antibacterial activity against Escherichia coli 1852-PM strain at 16 ug/mL concentration; A - low activity was observed
Escherichia coli [3] = experiment: Antibacterial activity against Escherichia coli 1850-WT strain at 16 ug/mL concentration; A - low activity was observed
Staphylococcus aureus [4] = experiment: Antibacterial activity against sensitive strains of Staphylococcus aureus at 2-32 ug/mL concentration; A - weak activity was observed
Streptococcus pneumoniae = experiment: Antibacterial activity against Streptococcus pneumoniae at a concentration of 2 ug/mL; A - weak activity was observed
Pseudomonas aeruginosa [5] = experiment: Antibacterial activity against Pseudomonas aeruginosa at concentrations >32 ug/mL; inactive
Escherichia coli [6] = experiment: Antibacterial activity against Escherichia coli 1919-PM/TEM-1 strains at a concentration of at 16 ug/mL concentration; A - low activity was observed
Staphylococcus aureus [7] = experiment: Antibacterial activity against resistant strains of Staphylococcus aureus at 2-32 ug/mL concentration; A - weak activity was observed
[8] = system: Staphylococcus epidermidis; experiment: Antibacterial activity against Staphylococcus epidermidis at 2 ug/mL concentration; A - weak activity was observed
Escherichia coli [9] = experiment: Antibacterial activity against Escherichia coli 851 at 16 ug/mL concentration; A - low activity was observed

`C[C@@H](O)[C@H]1C(=O)N2C(C(=O)O)=C(S[C@@H]3CN[C@H](C(=O)N(C)C)C3)[C@H](C)[C@H]12` was tested, and the Activity (Pseudomonas aeruginosa [1]) was “Low activity”.
`C[C@@H](O)[C@H]1C(=O)N2C(C(=O)O)=C(SCCN)C[C@H]12` was tested, and the Activity (Pseudomonas aeruginosa [1]) was “Low activity”.
`C[C@@H](O)[C@H]1C(=O)N2C(C(=O)O)=C3SCC[C@H]3[C@H]12` was tested, and the Activity (Escherichia coli [2]) was “Low activity”, the Activity (Escherichia coli [3]) was “Low activity” and the Activity (Staphylococcus aureus [4]) was “Low activity”. The Activity (Streptococcus pneumoniae) was “Low activity”, the Activity (Pseudomonas aeruginosa [5]) was “inactive” and the Activity (Escherichia coli [6]) was “Low activity”. The Activity (Staphylococcus aureus [7]) was “Low activity”, the Activity [8] was “Low activity” and the Activity (Escherichia coli [9]) was “Low activity”.
